Columns and labels:
[1] = system: human corneal epithelial cells; assay: cells; format: cell-based; settings: Corneal epithelial cell, 24 h, read-out: cell viability
Description: Human corneal epithelial cells (hCEC; SCCE016; Merck Millipore, Burlington, MA, USA) were cultured in corneal epithelial cell growth medium with supplement mix (LGC Standards, Teddington, United Kingdom). Approximately 10,000 hCECs were seeded onto each well of a 96-well cell-culture dishes (NUNC, Langenselbold, Germany). Confluent cells were used for Water-soluble tetrazolium salt (WST-1) cell proliferation assays (Hoffmann-La Roche AG, Basel, Switzerland). After 24 hours of incubation with 100 µl of corneal epithelial cell growth medium without its supplement mix (LGC Standards, Teddington, United Kingdom), hCECs were treated with different concentrations of xanthohumol (XH; Selleckchem, Houston, TX, USA) dissolved in dimethyl sulfoxide (DMSO; Carl Roth AG, Karlsruhe, Germany). Control groups were treated with DMSO only. Following another 72 hours of incubation, the cells were incubated with the WST-1 solution for 30 minutes. Substrate turnover was measured with an ELISA reader at 450 nm (Spectramax 190; Molecular Devices, Sunnyvale, CA, USA) and a reference at 690 nm. To determine potential anti-oxidative effects of xanthohumol, hCECs were incubated and treated analogous to the above-mentioned WST-1 cell proliferation assay with minor modifications. […] Following another incubation of the hCECs for 24 hours, the WST-1 assay was further finalized according to the description above.

[2] = system: Intracellular, mitochondrial reactive oxygen species (ROS); assay: Dihydrorhodamine-123 (DHR-123) assay of intracellular ROS; format: cell-based; settings: Homo sapiens, HCEC, 2 hours
Description: Intracellular, mitochondrial reactive oxygen species (ROS) were assessed using the cell membrane permeable dihydrorhodamine-123 (DHR-123) assay (D23806; ThermoFisher Scientific, Waltham, MA, USA) according to the manufacturer's instructions. Measurements were made after exposing human corneal epithelial cells to H2O2, xanthohumol or DMSO only for 2 hours. For ROS staining, cells were incubated with 10 µM DHR-123 for 15 minutes. Nucleus staining was performed using Hoechst 33342 nucleic acid stain (H1399; ThermoFisher Scientific, Waltham, MA, USA). Randomly, a minimum of 3 images of every treatment group were acquired with a 20x fluorescence objective using the aforementioned Axio Observer 7. Results were expressed in percent of fluorescence intensity relative to the baseline measurement in the DMSO control group. For quantification of the fluorescence signals, the microscope software ZEN 3.0 (Carl Zeiss AG, Jena, Germany) was used.

bovine corneas = assay: Corneal erosion assay on bovine corneas ex vivo; settings: up to 72 hours, every 12 hours, compared to the DMSO-treated control group
Description: Furthermore, corneal epithelial cell wound healing was determined on bovine corneas ex vivo. Bovine globes were obtained from a local butchery following approval by the authority for waste management of animal carcasses (ID: DE 09 162 0066-219) and processed within 12 hours post-mortem. The bovine globes were washed in 10% w/v povidone-iodine for 5 minutes. A circular corneal epithelial erosion was created using an 8 mm trephine and a hockey knife (Katena Products Inc., Parsippany, NJ, USA). Subsequently, a sclerocorneal ring was excised with eye scissors (Katena Products Inc., Parsippany, NJ, USA) and transferred to a 60 mm cell culture plate. To acquire reference images of the corneal erosion, the wound area was stained with a 0.8 mg/ml fluorescein sodium solution and illuminated with blue light (approximate wavelength 490 nm). Images were acquired using a distance-fixed digital single lens reflex camera equipped with a macro lens (Canon Inc., Tokyo, Japan). Consequently, the sclerocorneal rings were incubated in Dulbecco's Modified Eagle's Medium (Bio&SELL GmbH, Feucht, Germany) supplemented with 50 IU penicillin/ml and 50 µg streptomycin/ml (Merck Millipore, Burlington, MA, USA) and xanthohumol or DMSO only. Follow-up images were acquired every 12 hours, the cell culture medium was renewed daily.

hCEC [3] = assay: Cell scratch assay (hCEC migration / wound healing in vitro); format: cell-based, Human
Description: To analyze hCEC migration in vitro, cells were cultured in corneal epithelial cell growth medium with supplement mix until confluence of the cells of a 6-well cell culture plate. Following an incubation period of 24 hours in cell culture medium without supplements, 5 linear scratches were performed in each well using a 200 µl pipette tip (Eppendorf AG, Hamburg, Germany). The hCECs were then incubated prospectively under treatment with xanthohumol or DMSO as a control for up to 72 hours. Reference images were acquired at the beginning of the incubation period using the phase contrast mode on an Axio Observer 7 (Carl Zeiss AG, Jena, Germany). Every 24 hours, follow-up images of 4-5 different scratch sections were acquired. The size of the wound area was analyzed using a semi-automated analysis tool in ImageJ 1.53a (National Institute of Health, Bethesda, MD, USA).

[4] = system: Human corneal epithelial cells (hCEC); assay: WST-1 cell viability assay; format: cell-based; settings: 72 hours of incubation, hCECs, compared to the DMSO-treated control group
Description: Human corneal epithelial cells (hCEC; SCCE016; Merck Millipore, Burlington, MA, USA) were cultured in corneal epithelial cell growth medium with supplement mix (LGC Standards, Teddington, United Kingdom). Approximately 10,000 hCECs were seeded onto each well of a 96-well cell-culture dishes (NUNC, Langenselbold, Germany). Confluent cells were used for Water-soluble tetrazolium salt (WST-1) cell proliferation assays (Hoffmann-La Roche AG, Basel, Switzerland). After 24 hours of incubation with 100 µl of corneal epithelial cell growth medium without its supplement mix (LGC Standards, Teddington, United Kingdom), hCECs were treated with different concentrations of xanthohumol (XH; Selleckchem, Houston, TX, USA) dissolved in dimethyl sulfoxide (DMSO; Carl Roth AG, Karlsruhe, Germany). Control groups were treated with DMSO only. Following another 72 hours of incubation, the cells were incubated with the WST-1 solution for 30 minutes. Substrate turnover was measured with an ELISA reader at 450 nm (Spectramax 190; Molecular Devices, Sunnyvale, CA, USA) and a reference at 690 nm.

hCEC [5] = assay: BrdU cell proliferation ELISA; format: cell-based; settings: Homo sapiens, 24 hours, hCECs, no significant change
Description: Proliferation of hCEC was determined using a 5-bromo-2'-deoxyuridine (BrdU) ELISA in accordance with the manufacturers' recommendations (Merck KGaA, Darmstadt, Germany). In brief, approximately 7,000 cells were seeded onto a 96-well cell culture plat e and incubated for 24h to achieve complete adherence of the cells. After 24 hours of incubation with 100 µl of corneal epithelial cell growth medium without its' supplement mix, hCECs were treated with xanthohumol dissolved in DMSO. Following another 24 hours of incubation with BrdU labeling solution, cells were fixed and incubated with anti-BrdU antibodies according to the manufacturer's recommendations. BrdU incorporation into the DNA of hCECs was quantified by absorbance measurement at 450 nm.

Row | Compound | viability at 100 µM [1] [%] | activity at 100 µM ([2]; H2O2 100 µM only, compared to the control group, read-out: DHE-123 fluorescence) [%] | speed of re-epithelialization (bovine corneas; 1 µM) | speed of re-epithelialization (bovine corneas; 2.5 µM) | wound area (hCEC [3]; 1 µM, 72 hours of incubation, control group 73 ± 9%) [%] | wound area (hCEC [3]; 2.5 µM, 72 hours of incubation, control group 73 ± 9%) [%] | wound area (hCEC [3]; 2.5 µM, after 48 hours, control group 76 ± 7%) [%] | viability at 1 µM ([4]; 1 µM) [%] | viability at 2.5 µM ([4]; 2.5 µM) [%] | viability at 5 µM ([4]; 5 µM, not significant) [%] | activity at 1 µM (hCEC [5]; 1 µM) [%] | activity at 2.5 µM (hCEC [5]; 2.5 µM) [%] | activity at 5 µM (hCEC [5]; 5 µM) [%] | viability at 1 µM [1] [%] | viability at 2.5 µM [1] [%] | activity at 1 µM ([2]; 1 µM xanthohumol with H2O2 100 µM, relative to the DMSO control group, read-out: DHR-123 fluorescence) [%] | activity at 2.5 µM ([2]; 2.5 µM xanthohumol with H2O2 100 µM, relative to the DMSO control group, read-out: DHR-123 fluorescence) [%]
1 | OO [H2O2, hydrogen peroxide, reference compound] | 79 ± 14 | 149 ± 9 | – | – | – | – | – | – | – | – | – | – | – | – | – | – | –
2 | COc1cc(O)c(CC=C(C)C)c(O)c1C(=O)/C=C/c1ccc(O)cc1 [xanthohumol, 1-[2,4-Dihydroxy-6-methoxy-3-(3-methyl-but-2-enyl)-phenyl]-3-(4-hydroxyphenyl)-propenon] | – | – | did not show any significant difference | did not show any significant difference | 63 ± 14 | 58 ± 18 | 66 ± 11 | 144 ± 26 | 127 ± 11 | 121 ± 24 | 112 ± 26 | 107 ± 16 | 95 ± 8 | 91 ± 11 | 96 ± 4 | 97 ± 16 | 95 ± 26

Reference: EP4104818A1, “OPHTHALMIC COMPOSITION COMPRISING XANTHOHUMOL” (Skeye Pharma GbR, priority 2021, dated 2022)
